What all share (assay type): cell-based
One assay concerns Bacillus cereus. Description: Agar plate disc-diffusion, antibacterial. To be noted: nutrient agar, 37° C., 48 hours. Here is the method: (§1) The agar plate disc-diffusion method was applied. […] The discs were then placed onto the surface of agar plates (nutrient agar for bacteria and Sabouraud's dextrose agar for fungi) seeded with the test organism. Each plate contained 15 mL of the agar medium, previously seeded with 0.2 mL of the broth culture of each organism pregrown for 18 hours. The plates were incubated at 37° C. for 48 hours, and 72 hours for fungi. The inhibition zones was measured in mm. Discs impregnated with DMSO were used as a control, and its inhibition zone was subtracted from the tested compound actual inhibition zone.

The next assay deals with Escherichia coli. Description: Agar plate disc-diffusion, antibacterial. To be noted: nutrient agar, 37° C., 48 hours. On the procedure: as §1
A further assay relates to Pseudomonas aeruginosa. Kind of assay: Agar plate disc-diffusion, antibacterial. To be noted: nutrient agar, 37° C., 48 hours. On the procedure:
as §1

A further assay concerns Staphylococcus aureus. Kind of assay: Agar plate disc-diffusion, antibacterial. To be noted: nutrient agar, 37° C., 48 hours. Here is the method: as §1
In the next assay the test system is Aspergillus flavus. Kind of assay: Agar plate disc-diffusion, antifungal. To be noted: Sabouraud's dextrose agar, 72 hours. On the procedure:
as §1

In assay [1] the test system is Chrysosporium keratinophilum. Kind of assay: Agar plate disc-diffusion, antifungal. To be noted: Sabouraud's dextrose agar, 72 hours. Here is the method: as §1
Setting [2] is: A = concentration of comp. = 10,000 μL.
Setting [3] is: B = concentration of comp. = 30,000 μL.
Where [4] appears, read: C = concentration of comp. = 50,000 μL.
[5] abbreviates: A = concentration of comp. = 10,000 μg/mL.

The structures appear in SMILES notation.

For `O=C(O)c1cn(C2CC2)c2cc(N3CCNCC3)c(F)cc2c1=O` [Cip., ciprofloxacin], the inhibition zone in the assay on Bacillus cereus (setting [2]) came to 29 mm; in the assay with Bacillus cereus (setting [3]), 31 mm; in the assay with Bacillus cereus (setting [4]), 42 mm; with Escherichia coli (setting [2]), 30 mm; in the assay with Escherichia coli (setting [3]), 39 mm; with Escherichia coli (setting [4]), 60 mm. For the same compound, the inhibition zone with Pseudomonas aeruginosa (setting [5]) stood at 29 mm; in the assay on Pseudomonas aeruginosa (setting [3]) it was 30 mm; in the assay on Pseudomonas aeruginosa (setting [4]), 53 mm; in the assay on Staphylococcus aureus (setting [2]) it was 43 mm; in the assay on Staphylococcus aureus (setting [3]) it was 44 mm; in the assay with Staphylococcus aureus (setting [4]), 53 mm. Further, the inhibition zone in the assay on Aspergillus flavus (setting [2]) is given as 29 mm; in the assay on Aspergillus flavus (setting [3]), 32 mm; in the assay on Aspergillus flavus (setting [4]), 42 mm; in assay [1] (setting [2]), 29 mm; in assay [1] (setting [3]) it was 30 mm; in assay [1] (setting [4]), 53 mm.
With `COc1ccc(-c2nc(-c3ccc(Br)cc3)c(-c3ccc(Br)cc3)n2CCCC(=O)O)cc1` [V, 4-(4,5-bis(4-bromophenyl)-2-(4-methoxyphenyl)-1H-imidazol-1-yl)butanoic acid], the inhibition zone in the assay with Bacillus cereus (setting [2]) is 28 mm; with Bacillus cereus (setting [3]), 30 mm; with Bacillus cereus (setting [4]) it was 41 mm; with Escherichia coli (setting [2]) it was 26 mm; in the assay on Escherichia coli (setting [3]) it was 35 mm; in the assay with Escherichia coli (setting [4]), 47 mm. Moreover, the inhibition zone in the assay with Pseudomonas aeruginosa (setting [5]) was found to be 21 mm; in the assay on Pseudomonas aeruginosa (setting [3]), 24 mm; in the assay with Pseudomonas aeruginosa (setting [4]) it was 35 mm; with Staphylococcus aureus (setting [2]) it was 18 mm; in the assay with Staphylococcus aureus (setting [3]), 20 mm; in the assay on Staphylococcus aureus (setting [4]), 30 mm. Also, the inhibition zone in the assay with Aspergillus flavus (setting [2]) was 19 mm; with Aspergillus flavus (setting [3]), 21 mm; with Aspergillus flavus (setting [4]) it was 32 mm; in assay [1] (setting [2]), 26 mm; in assay [1] (setting [3]) it was 28 mm; in assay [1] (setting [4]), 50 mm.

(Values after US11945783B1, “4-(4,5-bis(4-bromophenyl)-2-(4-methoxyphenyl)-1H-imidazol-1-yl)butanoic acid as an antimicrobial compound” (KING FAISAL UNIVERSITY, priority 2023, dated 2024).)
